Data as given in EP4810038A1, “METHOD FOR TREATING ALK-POSITIVE OR ROS1-POSITIVE NON-SMALL CELL LUNG CANCER” (Shenzhen TargetRx Co., Ltd., priority 2023, dated 2025).
“And” between values parts separate entries of the source, which are not always exact repeats. Equal entries are not always repeated.

What was measured:
[1] = system: Ba/F3 (EML4-ALK G1202R) cell line; experiment: Anti-tumor effect in subcutaneous transplanted Ba/F3 (EML4-ALK G1202R) model; assay type: in vivo, NOD-SCID mice; details: for average tumor volume: 16th day after administration
Excerpt: Example 2: The anti-tumor effect in the subcutaneous transplanted animal model of Ba/F3 (EML4-ALK G1202R) cell line in female NOD-SCID mice.
Laboratory animals: NOD-SCID mice, female, 7 to 8 weeks old (the age of mice at tumor cell inoculation), weighing 16.0 to 20.3 g, and 50 mice (with additional 30 surplus mice). […] Housing environment: SPF grade.
Environmental conditions of the housing room of the laboratory animals: All the laboratory animals were housed in individually ventilated cages with constant temperature and constant humidity. The temperature of the housing room was 20 to 26 °C, the humidity was 40 to 70%, the ventilation was 10 to 20 times/hour, and the day/night light/dark cycle was 12h/12h. The animals were continuously provided with cobalt-60 irradiated complete pelleted mouse feed with unlimited free access. The animals drank tap water (used after being autoclaved), which was provided continuously from water bottles, allowing for free access. The cages for raising the mice were polysulfone mice cages, which were autoclaved before use, and measured 325 mm × 210 mm × 180 mm. The bedding was autoclaved corn cobs. Each cage contained 5 animals. […] The laboratory animals were marked with ear tags or ear labels.
Cell culture: Ba/F3 (EML4-ALK G1202R) cells (cell number: ECL-00031) were cultured in RPMI 1640 culture medium containing 10% fetal bovine serum. The Ba/F3 (EML4-ALK G1202R) cells in the exponential growth phase were collected, resuspended in PBS to a suitable concentration, and then subcutaneously inoculated for tumor formation.
Assay method: Female NOD/SCID mice were subcutaneously inoculated with 2×10^6 Ba/F3 (EML4-ALK G1202R) cells on the right side to establish a subcutaneous tumor transplantation model. […] The mice were administered orally via gavage once daily. The efficacy was evaluated based on the relative tumor growth inhibition rate (TGI), and the safety was evaluated based on the changes in the body weight and mortality of the animals.
(§1) All the procedures, including drug administration, tumor measurement, weight measurement, etc., were performed in a biosafety cabinet or on a clean bench.
The relative tumor growth rate (T/C%) was the percentage value of the relative tumor volume between a treatment group and the control group at a certain time point, or the percentage value of the tumor weight between a treatment group and the control group. […]

[2] = system: ALK-positive advanced NSCLC who had failed a second-generation ALK inhibitor; experiment: Phase II single-arm trial, 60 mg QD: whole-body tumor efficacy (IRC assessment); assay type: in vivo, human
Excerpt: Variable of the research: whether the subjects achieved objective response (CR/PR) during the treatment, as assessed by the independent review committee (IRC).

[3] = system: Ba/F3 (SLC34A2-ROS1 G2032R) cell line; experiment: Anti-tumor effect in subcutaneous transplanted Ba/F3 (SLC34A2-ROS1 G2032R) model; assay type: in vivo, NOD-SCID mice; details: for average tumor volume: 21st day after administration
Excerpt: Housing environment: SPF grade.
Environmental conditions of the housing room of the laboratory animals: All the laboratory animals were housed in individually ventilated cages with constant temperature and constant humidity. […] The animals were continuously provided with cobalt-60 irradiated complete pelleted mouse feed with unlimited free access. The animals drank tap water (used after being autoclaved), which was provided continuously from water bottles, allowing for free access. The cages for raising the mice were polysulfone mice cages, which were autoclaved before use, and measured 325 mm × 210 mm × 180 mm. The bedding was autoclaved corn cobs. Each cage contained 5 animals. The cage cards were marked with the IACUC approval number, experiment number, start time of the experiment, project leader, experimenters, source of the animals, group, and animal number. The laboratory animals were marked with ear tags or ear labels.
The Ba/F3 (SLC34A2-ROS1 G2032R) cells in the exponential growth phase were collected, resuspended in PBS to a suitable concentration, and then subcutaneously inoculated into nude mice for tumor formation.
Assay method: Female NOD/SCID mice were subcutaneously inoculated with 2×10^6 Ba/F3 (SLC34A2-ROS1 G2032R) cells on the right side to establish a subcutaneous tumor transplantation model. […] The mice were administered orally via gavage once daily. The efficacy was evaluated based on the relative tumor growth inhibition rate (TGI), and the safety was evaluated based on the changes in the body weight and mortality of the animals.
as §1
The relative tumor growth rate (T/C%) was the percentage value of the relative tumor volume between a treatment group and the control group at a certain time point, or the percentage value of the tumor weight between a treatment group and the control group. The calculation formula was: T/C% = TRTV / CRTV × 100% (TRTV: the average RTV of the treatment group; CRTV: the average RTV of the solvent control group; RTV = Vt / V0, wherein V0 is the tumor volume of the animal at the time of grouping, and Vt is the tumor volume of the animal after treatment); or T/C% = TTW / CTW × 100% (TTW: the average tumor weight at the end of the assay in the treatment group; CTW: the average tumor weight at the end of the assay in the solvent control group).
Statistical analysis: To compare the tumor volume on a given day across the different treatment groups, we first used the Bartlett's test to verify the assumption of homogeneity of variance among all the groups. When the p-value of the Bartlett's test was not less than 0.05, one-way ANOVA was used to test whether the means of all the groups were equal. If the p-value of the one-way ANOVA was less than 0.05, we would use the Tukey's HSD test for the pairwise comparisons between all the groups, or use the Dunnett's test for a pairwise comparison between each treatment group and the control group. When the p-value of the Bartlett's test was less than 0.05, the Kruskal-Wallis test was used to test whether the medians of all the groups were equal. […]

ALK fusion = experiment: Phase I clinical trial: biomarker analysis of 26 subjects previously treated with at least one ALK inhibitor
[4] = 158 subjects, cutoff May 20, 2024
[5] = whole-body, full analysis set (N=158)
[6] = bypass signaling alteration BRCA1
[7] = bypass signaling alteration BRCA2
[8] = bypass signaling alteration CCNE1
[9] = bypass signaling alteration CDKN2A
[10] = bypass signaling alteration EGFR
[11] = bypass signaling alteration IGF1R
[12] = bypass signaling alteration KIT
[13] = bypass signaling alteration MET
[14] = bypass signaling alteration RB1
[15] = bypass signaling alteration TP53

SMILES: [2H]C([2H])([2H])n1nc2c(c1C#N)-c1cnc(N)c(c1)O[C@H](C)c1cc(F)ccc1C(=O)N(C)C2 [compound A, (10R)-7-amino-12-fluoro-2-(methyl-d3)-10,16-dimethyl-15-oxo-10,15,16,17-tetrahydro-2H-8,4-(metheno)pyrazolo[4,3-h][2,5,11]benzoxadiazacyclotetradecine-3-carbonitrile]
- average tumor volume ([1]; 1.5 mg/kg p.o. once daily): 2139.18 mm^3
- average tumor volume ([1]; 5 mg/kg p.o. once daily): 576.11 mm^3
- average tumor volume ([1]; 15 mg/kg p.o. once daily): 0.25 mm^3
- tumor-bearing mice with tumor volume reduced to 0 ([1]; 15 mg/kg, end of the assay): 9/10
- median DOR [2, 4]: not yet reached
- median PFS [2, 4]: 11.14 months
- median TTR [2, 4]: 1.38 months
- ORR ([2]; subgroup ECOG PS score of 0 at baseline, FAS): 50.0%
- ORR ([2]; subgroup ECOG PS score of 1 to 2 at baseline, FAS): 40.8%
- ORR ([2]; subgroup age < 65 years old, FAS): 43.0%
- ORR ([2]; subgroup age ≥ 65 years old, FAS): 40.0%
- ORR ([2]; subgroup female, FAS): 42.9%
- ORR ([2]; subgroup male, FAS): 41.9%
- ORR ([2]; subgroup never received chemotherapy, FAS): 45.4%
- ORR ([2]; subgroup previously received chemotherapy, FAS): 37.7%
- ORR ([2]; subgroup with a smoking history, FAS): 38.6%
- ORR ([2]; subgroup with brain metastases at baseline, FAS): 45.3%
- ORR ([2]; subgroup without a smoking history, FAS): 39.4%
- ORR ([2]; subgroup without brain metastases at baseline, FAS): 38.9%
- BOR CR [2, 5]: 0 n (%)
- BOR NE [2, 5]: 2 (1.3) n (%)
- BOR PD [2, 5]: 25 (15.8) n (%)
- BOR PR [2, 5]: 67 n (%) and 67 (42.4) n (%)
- BOR SD [2, 5]: 64 (40.5) n (%)
- DCR [2, 5]: 131 (82.9) n (%)
- ORR [2, 5]: 67 n (%) and 67 (42.4) n (%)
- average tumor volume ([3]; 1.5 mg/kg p.o. once daily): 1334.38 mm^3
- average tumor volume ([3]; 5 mg/kg p.o. once daily): 305.46 mm^3
- average tumor volume ([3]; 15 mg/kg p.o. once daily): 0 mm^3
- tumor-bearing mice with tumor volume reduced to 0 ([3]; 15 mg/kg, end of the assay): 10/10
- PFS, mutant TP53 versus wild-type TP53 (ALK fusion; ALK TKI resistance subgroup, P=0.235): no difference
- Disease control rate (CR + PR + SD) (ALK fusion; ALK fusion (all 26 subjects)): 20/26
- Overall response rate (CR + PR) (ALK fusion; ALK fusion (all 26 subjects)): 11/26
- Partial response (ALK fusion; ALK fusion (all 26 subjects)): 11 and 11/26
- Progressive disease (ALK fusion; ALK fusion (all 26 subjects)): 6/26
- Stable disease (ALK fusion; ALK fusion (all 26 subjects)): 9/26
- Disease control rate (CR + PR + SD) (ALK fusion; ALK fusion V1): 4/6
- Overall response rate (CR + PR) (ALK fusion; ALK fusion V1): 2/6
- Partial response (ALK fusion; ALK fusion V1): 2/6
- Progressive disease (ALK fusion; ALK fusion V1): 2/6
- Stable disease (ALK fusion; ALK fusion V1): 2/6
- Disease control rate (CR + PR + SD) (ALK fusion; ALK fusion V2): 3/3
- Overall response rate (CR + PR) (ALK fusion; ALK fusion V2): 1/3
- Partial response (ALK fusion; ALK fusion V2): 1/3
- Progressive disease (ALK fusion; ALK fusion V2): 0/3
- Stable disease (ALK fusion; ALK fusion V2): 2/3
- Disease control rate (CR + PR + SD) (ALK fusion; ALK fusion V3): 7/8
- Overall response rate (CR + PR) (ALK fusion; ALK fusion V3): 5/8
- Partial response (ALK fusion; ALK fusion V3): 5/8
- Progressive disease (ALK fusion; ALK fusion V3): 1/8
- Stable disease (ALK fusion; ALK fusion V3): 2/8
- Disease control rate (CR + PR + SD) (ALK fusion; ALK fusion V5): 1/1
- Overall response rate (CR + PR) (ALK fusion; ALK fusion V5): 1/1
- Partial response (ALK fusion; ALK fusion V5): 1/1
- Progressive disease (ALK fusion; ALK fusion V5): 0/1
- Stable disease (ALK fusion; ALK fusion V5): 0/1
- Disease control rate (CR + PR + SD) (ALK fusion; ALK fusion others): 5/8
- Overall response rate (CR + PR) (ALK fusion; ALK fusion others): 2/8
- Partial response (ALK fusion; ALK fusion others): 2/8
- Progressive disease (ALK fusion; ALK fusion others): 3/8
- Stable disease (ALK fusion; ALK fusion others): 3/8
- Disease control rate (CR + PR + SD) (ALK fusion; ALK mutation (any)): 10/12
- Overall response rate (CR + PR) (ALK fusion; ALK mutation (any)): 5/12
- Partial response (ALK fusion; ALK mutation (any)): 5/12
- Progressive disease (ALK fusion; ALK mutation (any)): 2/12
- Stable disease (ALK fusion; ALK mutation (any)): 5/12
- Disease control rate (CR + PR + SD) (ALK fusion; ALK mutation p.E1210K p.D1203N): 0/1
- Overall response rate (CR + PR) (ALK fusion; ALK mutation p.E1210K p.D1203N): 0/1
- Partial response (ALK fusion; ALK mutation p.E1210K p.D1203N): 0/1
- Progressive disease (ALK fusion; ALK mutation p.E1210K p.D1203N): 1/1
- Stable disease (ALK fusion; ALK mutation p.E1210K p.D1203N): 0/1
- Disease control rate (CR + PR + SD) (ALK fusion; ALK mutation p.G1202R): 5/6
- Overall response rate (CR + PR) (ALK fusion; ALK mutation p.G1202R): 3/6
- Partial response (ALK fusion; ALK mutation p.G1202R): 3/6
- Progressive disease (ALK fusion; ALK mutation p.G1202R): 1/6
- Stable disease (ALK fusion; ALK mutation p.G1202R): 2/6
- Disease control rate (CR + PR + SD) (ALK fusion; ALK mutation p.I1171N): 1/1
- Overall response rate (CR + PR) (ALK fusion; ALK mutation p.I1171N): 0/1
- Partial response (ALK fusion; ALK mutation p.I1171N): 0/1
- Progressive disease (ALK fusion; ALK mutation p.I1171N): 0/1
- Stable disease (ALK fusion; ALK mutation p.I1171N): 1/1
- Disease control rate (CR + PR + SD) (ALK fusion; ALK mutation p.I1171T): 1/1
- Overall response rate (CR + PR) (ALK fusion; ALK mutation p.I1171T): 0/1
- Partial response (ALK fusion; ALK mutation p.I1171T): 0/1
- Progressive disease (ALK fusion; ALK mutation p.I1171T): 0/1
- Stable disease (ALK fusion; ALK mutation p.I1171T): 1/1
- Disease control rate (CR + PR + SD) (ALK fusion; [6]): 0/1
- Overall response rate (CR + PR) (ALK fusion; [6]): 0/1
- Partial response (ALK fusion; [6]): 0/1
- Progressive disease (ALK fusion; [6]): 1/1
- Stable disease (ALK fusion; [6]): 0/1
- Disease control rate (CR + PR + SD) (ALK fusion; [7]): 1/1
- Overall response rate (CR + PR) (ALK fusion; [7]): 1/1
- Partial response (ALK fusion; [7]): 1/1
- Progressive disease (ALK fusion; [7]): 0/1
- Stable disease (ALK fusion; [7]): 0/1
- Disease control rate (CR + PR + SD) (ALK fusion; [8]): 1/1
- Overall response rate (CR + PR) (ALK fusion; [8]): 1/1
- Partial response (ALK fusion; [8]): 1/1
- Progressive disease (ALK fusion; [8]): 0/1
- Stable disease (ALK fusion; [8]): 0/1
- Disease control rate (CR + PR + SD) (ALK fusion; [9]): 1/1
- Overall response rate (CR + PR) (ALK fusion; [9]): 0/1
- Partial response (ALK fusion; [9]): 0/1
- Progressive disease (ALK fusion; [9]): 0/1
- Stable disease (ALK fusion; [9]): 1/1
- Disease control rate (CR + PR + SD) (ALK fusion; [10]): 1/1
- Overall response rate (CR + PR) (ALK fusion; [10]): 0/1
- Partial response (ALK fusion; [10]): 0/1
- Progressive disease (ALK fusion; [10]): 0/1
- Stable disease (ALK fusion; [10]): 1/1
- Disease control rate (CR + PR + SD) (ALK fusion; [11]): 0/1
- Overall response rate (CR + PR) (ALK fusion; [11]): 0/1
- Partial response (ALK fusion; [11]): 0/1
- Progressive disease (ALK fusion; [11]): 1/1
- Stable disease (ALK fusion; [11]): 0/1
- Disease control rate (CR + PR + SD) (ALK fusion; [12]): 1/1
- Overall response rate (CR + PR) (ALK fusion; [12]): 1/1
- Partial response (ALK fusion; [12]): 1/1
- Progressive disease (ALK fusion; [12]): 0/1
- Stable disease (ALK fusion; [12]): 0/1
- Disease control rate (CR + PR + SD) (ALK fusion; [13]): 2/2
- Overall response rate (CR + PR) (ALK fusion; [13]): 1/2
- Partial response (ALK fusion; [13]): 1/2
- Progressive disease (ALK fusion; [13]): 0/2
- Stable disease (ALK fusion; [13]): 1/2
- Disease control rate (CR + PR + SD) (ALK fusion; [14]): 0/1
- Overall response rate (CR + PR) (ALK fusion; [14]): 0/1
- Partial response (ALK fusion; [14]): 0/1
- Progressive disease (ALK fusion; [14]): 1/1
- Stable disease (ALK fusion; [14]): 0/1
- Disease control rate (CR + PR + SD) (ALK fusion; [15]): 7/9
- Overall response rate (CR + PR) (ALK fusion; [15]): 4/9
- Partial response (ALK fusion; [15]): 4/9
- Progressive disease (ALK fusion; [15]): 2/9
- Stable disease (ALK fusion; [15]): 3/9
- ORR (ALK fusion; subjects with G1202R mutation): 50%
- ORR (ALK fusion; subjects with variant 1): 33.3%
- ORR (ALK fusion; subjects with variant 3): 62.5%
